Measurements taken from patent US12286425B2, “Herbicidally active bicyclic benzamides” (Bayer Aktiengesellschaft, priority 2018, dated 2025).

Key:
Assay type in all cases: in vivo
[1] = system: monocotyledonous and dicotyledonous weeds and crop plants; experiment: Post-emergence herbicidal action and crop plant compatibility (PO), including comparison with A-117; details: post-emergence (PO); for Herbicidal activity ECHCG: Echinochloa crus-galli; for Herbicidal activity VERPE: Veronica persica; for Herbicidal activity VIOTR: Viola tricolor; for Herbicidal activity ABUTH: Abutilon theophrasti; for Herbicidal activity AMARE: Amaranthus retroflexus; for herbicidal activity AVEFA: Avena fatua; for Herbicidal activity CYPES: Cyperus esculentus; for Herbicidal activity PHBPU: Ipomoea purpurea; for Herbicidal activity POLCO: Polygonum convolvulus; for Herbicidal activity SETVI: Setaria viridis; for Herbicidal activity STEME: Stellaria media
Procedure: 2. Post-emergence herbicidal action and crop plant compatibility (post-emergence, PO) Seeds of monocotyledonous and dicotyledonous weeds and crop plants are placed in sandy loam in plastic or organic planting pots, covered with soil and cultivated in a greenhouse under controlled growth conditions. 2 to 3 weeks after sowing, the test plants are treated at the one-leaf stage. The compounds of the invention, formulated in the form of wettable powders (WP) or as emulsion concentrates (EC), are then sprayed onto the green parts of the plants as aqueous suspension or emulsion with addition of 0.5% additive at a water application rate of […] (converted). After the test plants had been kept in the greenhouse under optimum growth conditions for about 3 weeks, the activity of the preparations is rated visually in comparison to untreated controls. The tables below show the herbicidal activity of numerous compounds according to the invention against important harmful plants. For example, 100% activity=the plants have died, 0% activity=like control plants.
(§1) In a comparative experiment, by way of example, the herbicidal activity of compound No. 2-13 according to the invention was compared to that of compound No. A-117 known from WO 2013/076315 A2.

[2] = system: monocotyledonous and dicotyledonous weed plants and crop plants; experiment: Pre-emergence herbicidal action and crop plant compatibility (PE), other species and comparison with A-117; details: pre-emergence (PE); for Herbicidal activity ABUTH: Abutilon theophrasti; for Herbicidal activity AMARE: Amaranthus retroflexus; for Herbicidal activity MATIN: Matricaria inodora; for Herbicidal activity CYPES: Cyperus esculentus; for Herbicidal activity ECHCG: Echinochloa crus-galli; for Herbicidal activity POLCO: Polygonum convolvulus; for Herbicidal activity STEME: Stellaria media; for Herbicidal activity VIOTR: Viola tricolor
Description: (§2) 1. Pre-emergence herbicidal action and crop plant compatibility (pre-emergence, PE) Seeds of monocotyledonous and dicotyledonous weed plants and crop plants are placed in plastic or organic planting pots and covered with soil. The compounds of the invention, formulated in the form of wettable powders (WP) or as emulsion concentrates (EC), are then applied onto the surface of the covering soil as aqueous suspension or emulsion with addition of 0.5% additive at a water application rate of […] (converted). After the treatment, the pots are placed in a greenhouse and kept under good growth conditions for the trial plants. After about 3 weeks, the effect of the preparations is scored visually in comparison with untreated controls as percentages. The tables below show the herbicidal activity of numerous compounds according to the invention against important harmful plants. For example, 100% activity=the plants have died, 0% activity=like control plants.
as §1

SETVI = experiment: Pre-emergence herbicidal action (PE), greenhouse pot test, SETVI; details: pre-emergence (PE)
Description: as §2

AVEFA = experiment: Pre-emergence herbicidal action (PE), greenhouse pot test, AVEFA; details: pre-emergence (PE); application rate 320; scored visually after about 3 weeks vs untreated controls; 100% = plants have died, 0% = like control plants
Description: as §2

[3] = application rate 80, rated visually after about 3 weeks
[4] = application rate 80, scored visually after about 3 weeks
[5] = application rate 320, scored visually after about 3 weeks
[6] = Setaria viridis, application rate 320, scored visually after about 3 weeks
[7] = application rate 20, rated visually after about 3 weeks

| Compound | Herbicidal activity ECHCG [1, 3] | Herbicidal activity VERPE [1, 3] | Herbicidal activity VIOTR [1, 3] | Herbicidal activity ABUTH [1, 3] | Herbicidal activity AMARE [1, 3] | herbicidal activity AVEFA [1, 3] | Herbicidal activity CYPES [1, 3] | Herbicidal activity PHBPU [1, 3] | Herbicidal activity POLCO [1, 3] | Herbicidal activity SETVI [1, 3] | Herbicidal activity STEME [1, 3] | Herbicidal activity ABUTH [2, 5] | Herbicidal activity AMARE [2, 5] | Herbicidal activity CYPES [2, 5] | Herbicidal activity ECHCG [2, 5] | Herbicidal activity MATIN [2, 5] | Herbicidal activity STEME [2, 5] | Herbicidal activity VIOTR [2, 5] | Herbicidal activity SETVI (SETVI; [6]) | herbicidal activity AVEFA (AVEFA) | further results |
| --- | --- | --- | --- | --- | --- | --- | --- | --- | --- | --- | --- | --- | --- | --- | --- | --- | --- | --- | --- | --- | --- |
| Cn1nnnc1NC(=O)c1ccc(C(F)(F)F)c2c1S(=O)(=O)CCS2(=O)=O [Example 2-11] | 80% | 80% | 90% | – | – | – | – | – | – | – | – | – | – | – | – | – | – | – | – | – | Herbicidal activity ABUTH [2, 4]: 100%; Herbicidal activity AMARE [2, 4]: 80%; Herbicidal activity MATIN [2, 4]: 80% |
| CCn1nnnc1NC(=O)c1ccc(C(F)(F)F)c2c1OCC[S+]2[O-] (stereo not shown) [Example 3-16] | 90% | 100% | 100% | 100% | 100% | 100% | 90% | 100% | 90% | 90% | 100% | 100% | 100% | 100% | 100% | 100% | 100% | 100% | 100% | 100% | Herbicidal activity POLCO [2, 5]: 100% |
| Cn1nnnc1NC(=O)c1ccc(C(F)(F)F)c2c1OCC[S+]2[O-] (stereo not shown) [Example 2-17, 5-(trifluoromethyl)-2,3-dihydro-1,4-benzoxathiine-N-(1-methyltetrazol-5-yl)-8-carboxamide 4-oxide] | 90% | 100% | 100% | 100% | 90% | 100% | 100% | 100% | 90% | 90% | 100% | 100% | 100% | 100% | 100% | 90% | 100% | 100% | 100% | 80% | Herbicidal activity ALOMY ([1]; Alopecurus myosuroides, application rate 80, rated visually after about 3 weeks): 90%; Herbicidal activity LOLMU ([1]; Lolium multiflorum, application rate 80, rated visually after about 3 weeks): 90%; Herbicidal activity MATIN ([1]; Matricaria inodora, application rate 80, rated visually after about 3 weeks): 90% |
| CCn1nnnc1NC(=O)c1ccc(C(F)(F)F)c2c1OCCS2(=O)=O [Example 3-19] | 100% | – | 100% | 90% | 90% | – | 80% | 90% | – | 90% | 100% | 100% | 100% | 100% | 100% | 100% | 90% | 100% | 100% | 90% | Herbicidal activity POLCO [2, 5]: 90% |
| CCn1nnnc1NC(=O)c1ccc(C(F)(F)F)c2c1OCCS2 [Example 3-13, 5-(trifluoromethyl)-2,3-dihydro-1,4-benzoxathiine-N-(1-ethyltetrazol-5-yl)-8-carboxamide] | 100% | – | 100% | 100% | 90% | 90% | – | 90% | 100% | 90% | 100% | 100% | 100% | 100% | 100% | 90% | 100% | 100% | 100% | 80% | Herbicidal activity POLCO [2, 5]: 90% |
| Cn1nnnc1NC(=O)c1ccc(C(F)(F)F)c2c1OCC(Cl)S2 (stereo not shown) [Example 2-41] | – | – | – | – | 90% | – | – | – | – | – | – | – | – | – | – | – | – | – | – | – | – |
| Cn1nnnc1NC(=O)c1ccc(C(F)(F)F)c2c1SCCS2 [Example 2-5, 5-(trifluoromethyl)-2,3-dihydro-1,4-benzodithiine-N-(1-methyltetrazol-5-yl)-8-carboxamide] | – | – | – | – | – | – | – | – | – | – | – | – | – | – | – | – | – | – | – | – | Herbicidal activity ABUTH [1, 7]: 90%; Herbicidal activity AMARE [1, 7]: 100%; Herbicidal activity ECHCG [1, 7]: 90%; Herbicidal activity STEME [1, 7]: 80%; Herbicidal activity VIOTR [1, 7]: 80%; Herbicidal activity ABUTH [2, 4]: 100%; Herbicidal activity AMARE [2, 4]: 100%; Herbicidal activity MATIN [2, 4]: 100%; Herbicidal activity STEME [2, 4]: 90%; Herbicidal activity VERPE ([2]; Veronica persica, application rate 80, scored visually after about 3 weeks): 90%; Herbicidal activity VIOTR [2, 4]: 100%; Herbicidal activity SETVI (SETVI; application rate 80, scored visually after about 3 weeks vs untreated controls, 100% = plants have died, 0% = like control plants): 90% |
